Measurements reported in ChEMBL document CHEMBL1144021, “Molecular determinants of the anticonvulsant felbamate binding site in the N-methyl-D-aspartate receptor” (J Med Chem, 2008).

Columns and labels:
[1] = tested on: Glutamate receptor ionotropic, NMDA 2B (Homo sapiens), Q13224 [E236A]; experiment: Inhibition of NR2B receptor ATD E236A mutant expressed in Xenopus oocytes assessed as NMDA current at 0.5 mM relative to control; type: cell-based; conditions: Oocyte
[2] = tested on: Glutamate receptor ionotropic, NMDA 2B (Homo sapiens), Q13224 [[…]]; experiment: Binding affinity to NR2B receptor M3c T647A mutant
[3] = Ratio of Kapp for wild type NR2B receptor to Kapp for NR2B receptor M3c L643A mutant
[4] = Ratio of Kapp for wild type NR2B receptor to Kapp for NR2B receptor L643A/T103A mutant
[5] = Binding affinity to NR2B receptor M3c […] mutant
[6] = Ratio of Kapp for wild type NR2B receptor to Kapp for NR2B receptor M3c A652T mutant
[7] = tested on: Glutamate receptor ionotropic, NMDA 2B (Homo sapiens), Q13224 [E236A]; experiment: Binding affinity to NR2B receptor ATD E236A mutant
[8] = Binding affinity to NR2B receptor […]/K234A mutant
[9] = tested on: Glutamate receptor ionotropic, NMDA 2B (Homo sapiens), Q13224 [A648C]; experiment: Inhibition of NR2B receptor M3c A648C mutant expressed in Xenopus oocytes assessed as NMDA current at 0.5 mM relative to control; type: cell-based; conditions: Oocyte
[10] = tested on: Glutamate receptor ionotropic, NMDA 2B (Homo sapiens), Q13224 [K234A]; experiment: Binding affinity to NR2B receptor ATD K234A mutant
[11] = tested on: Glutamate receptor ionotropic, NMDA 2B (Homo sapiens), Q13224 [V640A]; experiment: Inhibition of NR2B receptor M3c V640A mutant expressed in Xenopus oocytes assessed as NMDA current at 0.5 mM relative to control; type: cell-based; conditions: Oocyte
[12] = tested on: Glutamate receptor ionotropic, NMDA 2B (Homo sapiens), Q13224 [K234A]; experiment: Inhibition of NR2B receptor ATD K234A mutant expressed in Xenopus oocytes assessed as NMDA current at 0.5 mM relative to control; type: cell-based; conditions: Oocyte
[13] = Ratio of Kapp for wild type NR2B receptor to Kapp for NR2B receptor ATD D101A mutant
[14] = tested on: Glutamate receptor ionotropic, NMDA 2B (Homo sapiens), Q13224 [L643A,T103A]; experiment: Binding affinity to NR2B receptor L643A/T103A mutant
[15] = Ratio of Kapp for wild type NR2B receptor to Kapp for NR2B receptor T647A/K234A mutant
[16] = tested on: Glutamate receptor ionotropic, NMDA 2B (Homo sapiens), Q13224 [Y646A]; experiment: Inhibition of NR2B receptor M3c Y646A mutant expressed in Xenopus oocytes assessed as NMDA current at 0.5 mM relative to control; type: cell-based; conditions: Oocyte
[17] = Ratio of Kapp for wild type NR2B receptor to Kapp for NR2B receptor M3c S645A mutant
[18] = tested on: Glutamate receptor ionotropic, NMDA 2B (Homo sapiens), Q13224 [T544A]; experiment: Inhibition of NR2B receptor Pre-M1 T544A mutant expressed in Xenopus oocytes assessed as NMDA current at 0.5 mM relative to control; type: cell-based; conditions: Oocyte
[19] = molecular target: Glutamate receptor ionotropic, NMDA 2B (Homo sapiens) (UniProt Q13224); experiment: Binding affinity to NR2B receptor
[20] = Ratio of Kapp for wild type NR2B receptor to Kapp for NR2B receptor T647A/T103A mutant

Chain of Glutamate receptor ionotropic, NMDA 2B (Homo sapiens), Q13224 [E236A] (Q13224 whole entry E236A): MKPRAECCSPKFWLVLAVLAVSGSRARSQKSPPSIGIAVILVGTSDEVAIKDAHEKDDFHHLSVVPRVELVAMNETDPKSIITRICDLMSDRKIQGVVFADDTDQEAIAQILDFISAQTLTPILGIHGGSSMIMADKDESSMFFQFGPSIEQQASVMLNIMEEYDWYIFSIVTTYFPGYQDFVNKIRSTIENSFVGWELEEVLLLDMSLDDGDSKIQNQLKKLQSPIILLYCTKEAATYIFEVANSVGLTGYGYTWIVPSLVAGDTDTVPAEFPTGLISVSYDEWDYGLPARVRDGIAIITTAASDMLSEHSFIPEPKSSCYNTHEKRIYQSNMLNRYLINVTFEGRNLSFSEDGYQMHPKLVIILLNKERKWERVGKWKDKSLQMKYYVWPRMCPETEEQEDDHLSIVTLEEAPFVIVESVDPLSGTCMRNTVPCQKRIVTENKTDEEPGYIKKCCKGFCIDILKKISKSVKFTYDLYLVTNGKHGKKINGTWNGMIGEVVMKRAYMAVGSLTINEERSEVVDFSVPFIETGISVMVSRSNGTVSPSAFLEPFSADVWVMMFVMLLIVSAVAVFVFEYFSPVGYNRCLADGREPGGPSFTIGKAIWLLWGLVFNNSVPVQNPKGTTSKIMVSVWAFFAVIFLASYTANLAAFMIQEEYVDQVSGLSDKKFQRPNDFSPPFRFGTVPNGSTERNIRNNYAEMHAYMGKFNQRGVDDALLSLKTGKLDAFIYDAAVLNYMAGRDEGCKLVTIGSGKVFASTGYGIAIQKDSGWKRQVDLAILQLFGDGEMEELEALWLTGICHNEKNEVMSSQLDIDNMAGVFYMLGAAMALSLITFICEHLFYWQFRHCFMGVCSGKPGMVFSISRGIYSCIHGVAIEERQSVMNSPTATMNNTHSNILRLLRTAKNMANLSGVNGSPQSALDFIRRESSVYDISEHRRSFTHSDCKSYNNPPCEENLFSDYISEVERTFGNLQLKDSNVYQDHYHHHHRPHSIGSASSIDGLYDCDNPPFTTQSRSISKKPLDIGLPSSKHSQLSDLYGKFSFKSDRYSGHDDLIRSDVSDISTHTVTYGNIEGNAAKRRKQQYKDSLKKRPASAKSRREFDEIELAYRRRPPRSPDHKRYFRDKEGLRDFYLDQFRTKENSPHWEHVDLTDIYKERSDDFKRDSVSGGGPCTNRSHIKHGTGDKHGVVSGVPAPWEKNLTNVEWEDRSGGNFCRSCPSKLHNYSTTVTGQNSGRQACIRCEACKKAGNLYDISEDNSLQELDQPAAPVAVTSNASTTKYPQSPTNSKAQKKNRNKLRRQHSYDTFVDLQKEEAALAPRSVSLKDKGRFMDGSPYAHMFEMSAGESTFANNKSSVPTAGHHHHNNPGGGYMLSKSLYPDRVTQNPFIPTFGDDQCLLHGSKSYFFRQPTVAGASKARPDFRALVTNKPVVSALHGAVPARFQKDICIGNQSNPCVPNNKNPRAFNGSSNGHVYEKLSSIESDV
Chain of Glutamate receptor ionotropic, NMDA 2B (Homo sapiens), Q13224 [K234A] (Q13224 whole entry K234A): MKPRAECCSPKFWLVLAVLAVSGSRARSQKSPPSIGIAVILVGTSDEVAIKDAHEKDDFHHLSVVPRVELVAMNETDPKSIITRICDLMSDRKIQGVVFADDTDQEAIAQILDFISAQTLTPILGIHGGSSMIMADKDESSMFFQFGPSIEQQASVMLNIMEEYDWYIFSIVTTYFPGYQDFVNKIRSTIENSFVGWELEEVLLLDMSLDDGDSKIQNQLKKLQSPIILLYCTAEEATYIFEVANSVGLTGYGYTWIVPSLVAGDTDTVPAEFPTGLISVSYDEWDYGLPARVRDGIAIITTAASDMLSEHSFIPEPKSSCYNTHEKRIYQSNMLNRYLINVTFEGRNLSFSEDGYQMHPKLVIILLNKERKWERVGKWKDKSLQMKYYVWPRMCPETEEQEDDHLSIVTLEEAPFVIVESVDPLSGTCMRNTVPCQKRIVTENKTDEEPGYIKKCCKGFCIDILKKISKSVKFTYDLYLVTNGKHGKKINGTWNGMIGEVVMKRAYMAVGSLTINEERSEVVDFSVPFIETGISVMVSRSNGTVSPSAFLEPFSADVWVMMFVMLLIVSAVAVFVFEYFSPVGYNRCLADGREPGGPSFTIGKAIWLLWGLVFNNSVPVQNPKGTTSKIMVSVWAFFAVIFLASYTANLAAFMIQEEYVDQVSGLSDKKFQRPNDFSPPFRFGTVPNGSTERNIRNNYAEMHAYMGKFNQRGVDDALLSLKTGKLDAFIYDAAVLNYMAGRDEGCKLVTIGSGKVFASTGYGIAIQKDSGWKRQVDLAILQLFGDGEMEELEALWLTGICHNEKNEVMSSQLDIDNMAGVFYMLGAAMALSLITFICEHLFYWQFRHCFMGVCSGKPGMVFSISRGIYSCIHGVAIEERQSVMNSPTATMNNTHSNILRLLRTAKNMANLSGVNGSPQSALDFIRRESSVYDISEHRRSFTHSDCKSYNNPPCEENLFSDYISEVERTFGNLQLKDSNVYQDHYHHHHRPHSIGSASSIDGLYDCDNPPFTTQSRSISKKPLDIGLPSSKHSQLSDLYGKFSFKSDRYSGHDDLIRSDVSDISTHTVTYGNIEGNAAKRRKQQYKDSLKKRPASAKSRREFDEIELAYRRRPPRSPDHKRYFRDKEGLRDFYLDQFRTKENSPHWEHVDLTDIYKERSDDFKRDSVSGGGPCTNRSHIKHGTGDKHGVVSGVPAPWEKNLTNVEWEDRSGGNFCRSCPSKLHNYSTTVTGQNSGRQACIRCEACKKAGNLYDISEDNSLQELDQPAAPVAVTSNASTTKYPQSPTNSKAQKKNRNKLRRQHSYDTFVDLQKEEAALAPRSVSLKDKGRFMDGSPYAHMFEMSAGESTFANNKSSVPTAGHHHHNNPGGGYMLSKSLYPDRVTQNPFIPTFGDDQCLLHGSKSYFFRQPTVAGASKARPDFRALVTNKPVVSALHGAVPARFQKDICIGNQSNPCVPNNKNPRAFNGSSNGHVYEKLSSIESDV
Chain of Glutamate receptor ionotropic, NMDA 2B (Homo sapiens) (Q13224 27-1484 limits assumed): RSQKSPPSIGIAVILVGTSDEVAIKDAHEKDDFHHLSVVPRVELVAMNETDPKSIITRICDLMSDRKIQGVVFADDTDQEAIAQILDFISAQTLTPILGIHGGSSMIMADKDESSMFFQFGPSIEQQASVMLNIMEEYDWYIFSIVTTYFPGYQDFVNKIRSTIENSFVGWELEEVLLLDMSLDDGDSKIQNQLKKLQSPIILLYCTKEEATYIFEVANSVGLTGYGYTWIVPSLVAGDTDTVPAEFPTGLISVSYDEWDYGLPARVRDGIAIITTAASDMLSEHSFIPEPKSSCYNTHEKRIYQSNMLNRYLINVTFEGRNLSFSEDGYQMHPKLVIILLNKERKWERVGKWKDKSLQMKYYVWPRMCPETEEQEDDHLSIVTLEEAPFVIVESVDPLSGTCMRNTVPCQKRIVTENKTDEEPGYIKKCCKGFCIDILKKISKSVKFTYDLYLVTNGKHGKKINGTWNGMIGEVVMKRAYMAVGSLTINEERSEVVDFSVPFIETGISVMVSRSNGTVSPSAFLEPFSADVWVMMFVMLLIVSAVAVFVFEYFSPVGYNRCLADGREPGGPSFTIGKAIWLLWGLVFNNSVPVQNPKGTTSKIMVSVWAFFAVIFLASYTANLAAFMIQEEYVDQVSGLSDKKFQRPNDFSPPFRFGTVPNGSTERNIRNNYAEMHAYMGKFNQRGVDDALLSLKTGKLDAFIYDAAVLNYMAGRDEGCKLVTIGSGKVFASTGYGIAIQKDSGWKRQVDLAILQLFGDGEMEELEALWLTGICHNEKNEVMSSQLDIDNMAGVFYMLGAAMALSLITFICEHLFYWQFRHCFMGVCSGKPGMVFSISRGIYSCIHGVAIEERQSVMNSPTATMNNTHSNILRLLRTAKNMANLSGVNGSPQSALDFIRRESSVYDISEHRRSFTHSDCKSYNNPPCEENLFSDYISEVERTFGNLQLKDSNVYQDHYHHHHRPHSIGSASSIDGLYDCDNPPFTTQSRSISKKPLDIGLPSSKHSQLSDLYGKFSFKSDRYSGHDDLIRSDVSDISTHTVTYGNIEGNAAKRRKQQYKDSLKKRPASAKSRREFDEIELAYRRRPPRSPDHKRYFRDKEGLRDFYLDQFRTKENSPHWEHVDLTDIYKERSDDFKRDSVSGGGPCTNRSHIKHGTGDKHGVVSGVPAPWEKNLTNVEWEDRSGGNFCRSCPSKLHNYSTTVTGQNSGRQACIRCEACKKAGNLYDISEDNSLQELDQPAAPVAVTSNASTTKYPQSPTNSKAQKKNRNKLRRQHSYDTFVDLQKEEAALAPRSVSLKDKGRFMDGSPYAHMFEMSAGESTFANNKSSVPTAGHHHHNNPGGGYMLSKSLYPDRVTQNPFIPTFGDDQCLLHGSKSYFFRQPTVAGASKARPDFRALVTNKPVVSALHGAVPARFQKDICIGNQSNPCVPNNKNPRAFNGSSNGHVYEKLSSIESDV

For `NC(=O)OCC(COC(N)=O)c1ccccc1`, the inhibition [1] was 83%, the Kapp [2] was 6.5 mM and the Ratio Ki(app) [3] was 6.5. It also gave a Ratio Ki(app) [4] of 5.8, a Kapp [5] of 5.64 mM and a Ratio Ki(app) [6] of 3.3. The Kapp [7] was 2.18 mM, the Kapp [8] was 7 mM and the inhibition [9] was 73%. The Kapp [10] was 4.31 mM, the inhibition [11] was 71% and the inhibition [12] was 85%. The Ratio Ki(app) [13] was 3.2, the Kapp [14] was 5.07 mM and the Ratio Ki(app) [15] was 8. It also gave an inhibition [16] of 74%, a Ratio Ki(app) [17] of 4.9 and an inhibition [18] of 69%. It also gave a Kapp [19] of 0.87 mM and a Ratio Ki(app) [20] of 7.7.
